Experimental data: US12239643B2, “Therapeutic agent for inflammatory diseases, autoimmune diseases, fibrotic diseases, and cancer diseases” (MEIJI SEIKA PHARMA CO., LTD., priority 2018, dated 2025)

Legend:
Assay type in all cases: cell-based
[1] = system: TNFα; assay: Cytokine suppression using human T cells: TNFα; conditions: T-cell; human CD3-positive T cells, CD3 antibody, about 18 hours; read-out: TNFα Inhibitory Activity, Human T-Cell (Test Example 5)
Experimental: (§1) First, CD3-positive T cells were separated from whole blood by a magnetic bead method using an EasySep cell separation kit. Separated T cells suspended in RPMI-1640 medium were seeded on a 96-well plate previously coated with CD3 antibody (final concentration 3 μg/mL). Further, CD28 antibody (final concentration 5 ng/mL) was added as an IL-5 production stimulus and an IL-13 production stimulus. A test compound dissolved in dimethyl sulfoxide was added to each well, followed by culture at 37° C. under 5% CO2. The culture was carried out for about 18 hours for the evaluation of the amount of TNFα, and for about 48 hours for the evaluation of the amounts of IL-17A, IL-5, and IL-13. […]
(§2) The measurement results obtained by measuring the TNFα inhibitory activity (50% inhibitory concentration) of the test compounds by the above method were evaluated in accordance with the following evaluated basis; A: less than 10 nM, B: 10 nM or more and less than 100 nM, and C: 100 nM or more. In addition, the measurement results obtained by measuring the IL-17A inhibitory activity, IL-5 inhibitory activity, and IL-13 inhibitory activity (50% inhibitory concentration) of the test compounds were evaluated in accordance with the following evaluated basis; A: less than 500 nM, B: 500 nM or more and less than 5000 nM, and C: 5000 nM or more.

[2] = system: IL-17A; assay: Cytokine suppression using whole human blood: IL-17A (phytohaemagglutinin stimulus); conditions: read-out: IL-17A Inhibitory Activity, Human Whole Blood (Test Example 3)
Experimental: The test compound dissolved in dimethyl sulfoxide was added to a 96-well plate, and RPMI-1640 medium and human peripheral blood containing sodium heparin were added, followed by culture at 37° C. under 5% CO2 for 1 hour. A medium containing only dimethyl sulfoxide instead of the test compound was added to the control well. […]
After collecting the culture supernatant after culturing, the amount of each cytokine was measured by the sandwich ELISA method. […]
as §2, with “TNFα inhibitory activity and IL-5” for “TNFα”, “100” for “10”, “500” for “100”, “activity” for “activity, IL-5 inhibitory activity,”, “IL-4” for “IL-13”

[3] = system: IL-4; assay: Cytokine suppression using human peripheral blood mononuclear cells: IL-4; conditions: human PBMC, CD3 antibody and CD28 antibody; read-out: IL-4 Inhibitory Activity, Human PBMC (Test Example 4)
Experimental: First, peripheral blood mononuclear cells (PBMC) were separated from whole blood by specific gravity centrifugation. Then, the isolated peripheral blood mononuclear cells were added to RPMI-1640 medium (containing 10% fetal bovine serum, penicillin, streptomycin, L-glutamine, and 2-mercaptoethanol), and cultured in a 96-well plate at 37° C. under 5% CO2 for 0 to 1 hour. The test compound dissolved in dimethyl sulfoxide was added to each well, followed by further culture at 37° C. under 5% CO2 for 1 hour. A medium containing only dimethyl sulfoxide instead of the test compound was added to the control well. […]
as §2, with “TNFα inhibitory activity and IL-5” for “TNFα”, “IL-23 inhibitory activity, IL-4” for “IL-5”

[4] = system: IL-13; assay: Cytokine suppression using human T cells: IL-13; conditions: T-cell; human CD3-positive T cells, CD3 and CD28 antibody, about 48 hours; read-out: IL-13 Inhibitory Activity, Human T-Cell (Test Example 5)
Experimental: as §1, §2

[5] = system: IL-17A; assay: Cytokine suppression using human T cells: IL-17A; conditions: T-cell; human CD3-positive T cells, CD3 antibody, about 48 hours; read-out: IL-17A Inhibitory Activity, Human T-Cell (Test Example 5)
Experimental: as §1, §2

Compound: CCOc1cc([C@@H](CS(C)(=O)=O)N2C(=O)c3cccc(NC(C)=O)c3C2=O)ccc1OC [apremilast, reference compound]
- IC50 [1]: > 100 nM
- IC50 [2]: ≥ 5000 nM
- IC50 [3]: ≥ 5000 nM
- IC50 [4]: 500 to 5000 nM
- IC50 [5]: 500 to 5000 nM

Compound: CC(C)(O)C(F)(F)Oc1ccc(-c2nccs2)c2oc(N3CC4CC(C3)N4)nc12 [Example 248, 1-((2-(3,6-Diazabicyclo[3.1.1]heptan-3-yl)-7-(thiazol-2-yl)benzo[d]oxazol-4-yl)oxy)-1,1-difluoro-2-methylpropan-2-ol]
- IC50 [1]: < 10 nM
- IC50 [2]: < 500 nM
- IC50 [3]: < 500 nM
- IC50 [4]: < 500 nM
- IC50 [5]: < 500 nM
